The source of these data is ChEMBL document CHEMBL1129761, “2-[(Alkylsulfonyl)oxy]-6-substituted-1H-isoindole-1,3(2H)-dione mechanism-based inhibitors of human leukocyte elastase” (Bioorg Med Chem Lett, 1996).

For assay [1], the target named is T1, Chymotrypsin-like elastase family member 2A (Sus scrofa) (UniProt P08419).
T1 sequence (whole entry): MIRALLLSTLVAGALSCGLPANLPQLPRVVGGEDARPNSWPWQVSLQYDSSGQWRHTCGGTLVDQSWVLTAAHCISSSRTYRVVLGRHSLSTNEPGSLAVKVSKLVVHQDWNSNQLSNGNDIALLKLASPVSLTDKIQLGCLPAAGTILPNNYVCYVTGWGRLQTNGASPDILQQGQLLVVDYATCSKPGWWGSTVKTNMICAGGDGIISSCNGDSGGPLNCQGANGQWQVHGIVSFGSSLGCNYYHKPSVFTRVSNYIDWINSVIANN
The assay can be described thus: Compound was evaluated for the inhibition of porcine pancreatic elastase (PPE).

Assay [2] has as its target Chymotrypsinogen A (Bos taurus) (UniProt P00766). The assay can be described thus: Compound was evaluated for the inhibition of Chymotrypsinogen.
For assay [3], the target named is T2, Neutrophil elastase (Homo sapiens) (UniProt P08246).
T2 sequence (whole entry): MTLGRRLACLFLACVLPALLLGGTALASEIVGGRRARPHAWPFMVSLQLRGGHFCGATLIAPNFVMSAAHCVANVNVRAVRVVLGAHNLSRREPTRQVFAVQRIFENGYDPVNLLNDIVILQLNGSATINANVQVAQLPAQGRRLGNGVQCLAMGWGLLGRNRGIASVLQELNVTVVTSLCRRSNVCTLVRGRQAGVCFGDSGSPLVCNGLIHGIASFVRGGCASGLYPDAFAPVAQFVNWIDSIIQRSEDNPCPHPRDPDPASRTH
Briefly: Compound was evaluated for the inhibition of human leukocyte elastase (HLE).

For `CC(C)S(=O)(=O)ON1C(=O)c2ccccc2C1=O`, the results for the k obs / 1 in assay [1], in assay [2] and in assay [3] were 370 M⁻¹ s⁻¹, 160000 M⁻¹ s⁻¹ and 63000 M⁻¹ s⁻¹, respectively.

Consider `CC(C)S(=O)(=O)ON1C(=O)c2ccc(N)cc2C1=O`, for which the k obs / 1 came to 22000 M⁻¹ s⁻¹ in assay [1], 11000 M⁻¹ s⁻¹ in assay [2] and 82000 M⁻¹ s⁻¹ in assay [3].

Consider `Cc1ccc2c(c1)C(=O)N(OS(C)(=O)=O)C2=O`, for which the k obs / 1 was determined as 21000 M⁻¹ s⁻¹ in assay [1], 16000 M⁻¹ s⁻¹ in assay [2] and 30000 M⁻¹ s⁻¹ in assay [3].

Take `CS(=O)(=O)ON1C(=O)c2ccc(N)cc2C1=O`: the k obs / 1 in assay [1] came out at 24000 M⁻¹ s⁻¹; in assay [2], 12000 M⁻¹ s⁻¹; in assay [3] it was 110000 M⁻¹ s⁻¹.

For the compound `Cc1ccc(S(=O)(=O)ON2C(=O)c3ccc(C)cc3C2=O)cc1`, the k obs / 1 in assay [1] stood at 7400 M⁻¹ s⁻¹; in assay [2], 27000 M⁻¹ s⁻¹; in assay [3] it was 58000 M⁻¹ s⁻¹.

On to `CS(=O)(=O)ON1C(=O)c2ccccc2C1=O`, for which the figures for the k obs / 1 in assay [1], in assay [2] and in assay [3] were 6500 M⁻¹ s⁻¹, 2700 M⁻¹ s⁻¹ and 61000 M⁻¹ s⁻¹, respectively.

As to `Cc1ccc(S(=O)(=O)ON2C(=O)c3ccccc3C2=O)cc1`, the k obs / 1 in assay [1] came to 1400 M⁻¹ s⁻¹; in assay [2], 90000 M⁻¹ s⁻¹; in assay [3], 78000 M⁻¹ s⁻¹.
